Laboratory results as given in patent US6576811B1, “Transgenic rat with human normal type c-Ha-ras gene” (National Cancer Center Research Institute, priority 1998, dated 2003).
Where “and” joins values, the source holds several entries; their conditions need not be identical. Identical values can stand only once. Marks after values point to notes of the source that are not given here.

What was measured:
[1] = tested on: human c-Ha-ras proto-oncogene (transgene); test: Mutation analysis (RFLP, PCR-SSCP) of the transgene in carcinogen-induced tumors
Text: Single-stranded DNA confirmation polymorphism (SSCP) analysis is able to be performed according to the followings; T. Sekiya. Protein, Nucleic Acid, Enzyme, vol.
Possible mutations in exons 1 to 4 of the human Ha-ras proto-oncogene and exons 1 and 2 of the endogenous gene were examined by PCR-SSCP analysis.
RFLP analysis is able to perform according to the followings; Nagase, et al., Protein, Nucleic Acid, Enzyme, vol.

[2] = tested on: wild type rats (non Tg rats); test: PhIP-induced mammary carcinomas in wild type rats; type: in vivo, rat; conditions: 4 rats
Description: (§6) Well established mammary carcinogens, such as 7,14-dimethylbenz[a]anthracene (DMBA) and 2-amino-1-methyl-6-phenylimidazo[4,5-]pyridlne (PhIP) were given to the Hras128 rats in the same manner as in previous reports.

[3] = tested on: endogenous Ha-ras gene (rat); test: Mutation analysis (PCR-SSCP) of the endogenous Ha-ras gene in carcinogen-induced tumors
Text: Single-stranded DNA confirmation polymorphism (SSCP) analysis is able to be performed according to the followings; T. Sekiya. Protein, Nucleic Acid, Enzyme, vol. 41, No. 5, 539, 1996.
Possible mutations in exons 1 to 4 of the human Ha-ras proto-oncogene and exons 1 and 2 of the endogenous gene were examined by PCR-SSCP analysis. Using human or rat specific primers, only two bands appeared on the gals. With common primers (cHras21F and cHras21R) for Ha-ras exon 2 of both man and rats, four bands were detected. Human or rat specific bands were identified by signals from normal DNA of the transgenic and non-transgenic rats. DNA from T24 having a mutation in human Ha-ras of codon 12, GGC to GTC and that from pSK2 having a mutation in the codon 61, CAG to CTG, gave clearly mobility shifted bands in the assays (FIG. 4). However, a GGC to GAC mutation of the transgene enriched by PCR after RFLP analysis as described below, which was frequently observed in tumors induced by MNU in human Ha-ras proto-oncogene transgenic mice, could not be detected by SSCP -PCR analysis. In 44 tumors from Hras128 transgenic rats treated with MNU, mutations were not detected in exons 1 to 4 of the introduced human and endogenous c-Ha-ras genes under any of four SSCP conditions (at 4 or 20° C., with or without 5% glycerol) (Table 1). In contrast, a relatively high frequency (6 of 21 tumors of non-transgenic rats (28.6%) of GGA to GAA mutations in codon 12 of the endogenous Ha-ras gene was detected in mammary carcinomas of non-transgenic using PCR-SSCP analysis followed by direct sequencing (Table 1).

Hras128 rats [4] = test: PhIP-induced mammary carcinomas in Hras128 rats; type: in vivo, rat
Description: as §6

[5] = tested on: wild type rats (non Tg rats); test: MNU-induced mammary carcinogenesis in wild type rats (102 line); type: in vivo, rat; conditions: strain 102, 'MNU Treatment' cell '—' (probably wild rats), week 18, 13 rats
Description: (§1) MNU, at a dose of 50 mg/kg, was intravenously injected into Hras128 and wild type rats, at 50 days old, to perform histopathological examination of the incidence of mammary tumor and to screen the presence or absence of any point mutation of the transgene and endogenous c-Ha-ras gene.
(§2) Mammary tumor became palpable in the Hras128 strain rats, 5 weeks after MNU administration, and then multiple adenocarcinoma developed in all (100%) of the mammary glands of all the transgenic rats at week 8, but that in the wild type rats only 29.2% even at week 8 (see Table 1 and FIG. 2). In 102-strain rats, multiple adenocarcinoma was observed 16 weeks after MNU administration.

Hras102 rats = test: MNU-induced mammary carcinogenesis in 102-strain transgenic rats; type: in vivo, rat
Description: as §1, §2

Hras128 rats [6] = test: MNU-induced mammary carcinogenesis in Hras128 transgenic rats; type: in vivo, rat
Description: as §1, §2

[7] = tested on: wild type rats (non Tg rats); test: MNU-induced mammary carcinogenesis in wild type rats (128 line); type: in vivo, rat; conditions: strain 128, 'MNU Treatment' cell '—' (wild type rats per text), week 8, 24 rats
Description: as §1, §2

Hras128 rats [8] = test: Effects of d-limonene on MNU-induced mammary carcinogenesis in Hras128 transgenic rats; type: in vivo, rat; conditions: 5% d-limonene, 9 rats
Hras128 rats [9] = test: DMBA-induced mammary carcinomas in Hras128 rats
Description: as §6
(§7) The number of tumor indicates number of lesions per rat and the sizes of the tumors indicates their diameter (mm).

[10] = tested on: wild type rats (non Tg rats); test: DMBA-induced mammary carcinomas in wild type rats; type: in vivo, rat
Description: as §6, §7

wild rats = test: ENU-induced transplacental carcinogenesis in wild rats; type: in vivo, rat
Description: (§3) The effects of transplacental administration of carcinogenic substances were examined in offsprings of females and males of Hras128 rats and wild rats.
(§4) Transplacental administration of ethylnitrosourea (ENU) was performed and incidence of tumors in many organs of the bearing rats are shown in Table 14.

Hras128 rats [11] = test: ENU-induced transplacental carcinogenesis in Hras128 (Tg 128) rats; type: in vivo, rat; conditions: for No. of tumor bearing rat/total No. of rat / Tumor incidence, CNS / Tumor incidence, kidney / Tumor incidence, mammary gland / Tumor incidence, papilloma / Tumor incidence, spleen: transplacental ENU
Description: as §3, §4

wild type rats = test: BBN-induced urinary bladder tumors in wild type rats; type: in vivo, rat; conditions: Wild female
Description: (§5) In the same manner as in Example 2, 0.05% N-butyl-N-(4-hydroxybutyl)nitrosoamine (BBN) was administered mixed with drinking water to Hras128 rats and the wild type rats for 10 weeks, to induce bladder tumors. The incidences of bladder tumors (papillomas and carcinomas combined) are shown in Table 11, the mutation of the human c-Ha-ras proto-oncogene codons 12 and 61 and endogeneous rat H-ras shown in Table 12.

Hras128 rats [12] = test: BBN-induced urinary bladder tumors in Hras128 rats; type: in vivo, rat
Description: as §5

[13] = PhIP-induced mammary carcinomas, row printed 'Wild' (Hras128 per text), 20 tumors examined
[14] = PhIP-induced mammary carcinomas, row printed 'Wild' (Hras128 per text), 20 tumors examined, RFLP
[15] = Hras128, mammary carcinomas, 6 rats
[16] = MNU-induced mammary tumors, Hras128, 44 tumors examined
[17] = strain 102, MNU performed, week 18 after injection, 23 rats
[18] = strain 128, MNU performed, 50 mg/kg i.v., week 8 after injection, 22 rats
[19] = MNU-induced mammary tumors, Hras128, 44 tumors examined, SSCP
[20] = Hras128, mammary carcinomas, 14 rats
[21] = DMBA-induced mammary carcinomas, Hras128, 20 tumors examined
[22] = DMBA-induced mammary carcinomas, Hras128, 20 tumors examined, RFLP
[23] = DMBA-induced mammary carcinomas, Wild, 7 tumors examined
[24] = bladder papillomas and carcinomas combined, 15 rats
[25] = BBN-induced bladder tumors, Hras128, 27 tumors examined
[26] = BBN-induced bladder tumors, Wild, 17 tumors examined
[27] = Hras128 female, bladder papillomas and carcinomas combined, 20 rats

## Cn1c(N)nc2ncc(-c3ccccc3)cc21 [PhIP]
[1]; [13]
  Transgene codon 12 mutations, %: 30%
  Transgene codon 61 mutations, %: 23.1%
  Transgene mutations total, number of tumors: 8
[1]; [14]
  Transgene codon 12 mutations, number of tumors: 6/20 and 6
  Transgene codon 61 mutations, number of tumors: 3/20 and 3
[1]; PhIP-induced mammary carcinomas, row printed 'Wild' (Hras128 per text), percent sign not given
  Transgene mutations total, figure in parentheses: 61.5
[2]
  No. of tumor-bearing rats: 0(0)
  No. of tumor-bearing rats (%): 0(0) %
  No. of tumors/rat: 0
[3]; [13]
  Endogenous (rat) exon 1 mutations, number of tumors: 0
  Endogenous (rat) exon 2 mutations, number of tumors: 0
Hras128 rats [4]; Hras128, mammary carcinomas
  Tumor size: 9.23 ± 6.21 mm
Hras128 rats [4]; [15]
  No. of tumor-bearing rats: 6
  No. of tumor-bearing rats (%): 100%
  No. of tumors/rat: 9.67 ± 4.76^b
Hras128 rats [4]; mammary carcinogenesis
  Sensitivity of the Hras128 rat to PhIP: highly sensitive

## CN(N=O)C(N)=O [MNU, N-methyl-N-nitrosourea]
[1]; [16]
  Tumors with transgene exon 2 (codon 61) mutation, number: 0
  Tumors with transgene exon 3 mutation, number: 0
  Tumors with transgene exon 4 mutation, number: 0
[5]
  No. of tumor-bearing rats: 10
  No. of tumor-bearing rats (%): (76.9) %
  No. of tumor/rat: 3.00 ± 2.86
Hras102 rats; 102-strain rats, MNU 50 mg/kg i.v.
  Multiple adenocarcinoma observed, time after MNU administration: 16 weeks
Hras102 rats; [17]
  No. of tumor-bearing rats: 20
  No. of tumor-bearing rats (%): (87.0) %
  No. of tumor/rat: 5.83 ± 5.31
Hras128 rats [6]; Hras128 rats, MNU 50 mg/kg i.v. at 50 days old
  Mammary tumor became palpable, time after MNU administration: 5 weeks
Hras128 rats [6]; Tg rats vs wild type
  Sensitivity of Tg rats to MNU-induced mammary carcinogenesis: very sensitive
Hras128 rats [6]; [18]
  No. of tumor-bearing rats: 22
  No. of tumor/rat: 14.0 ± 6.42
[3]; [19]
  Tumors with endogenous (rat) exon 1 mutation, number: 0
  Tumors with endogenous (rat) exon 2 mutation, number: 0
[3]; MNU-induced mammary tumors, Wild, 21 tumors examined, SSCP
  Tumors with endogenous (rat) exon 2 mutation, number: 0
[7]
  No. of tumor-bearing rats: 7
  No. of tumor/rat: 0.46 ± 0.93

## C=C(C)[C@H]1CC=C(C)CC1 [d-Limonene, d-limonene]
Hras128 rats [8]; basal diet control 10.7 ± 7.34, P < 0.01
  Average size of tumors (mm): 8.23 ± 4.88 ^a mm
Hras128 rats [8]; basal diet control 26.4 ± 8.52
  No. of tumors/rat: 19.4 ± 6.71
Hras128 rats [8]; basal diet control 637.7 ± 1669, P < 0.01
  Average size of tumors (mm^3): 269.5 ± 735.5 ^a mm^3

## Cc1c2ccccc2c(C)c2c1ccc1ccccc12 [DMBA]
Hras128 rats [9]; Hras128, mammary carcinomas
  Tumor size (diameter): 12.6 ± 9.22 mm
Hras128 rats [9]; [20]
  No. of tumor-bearing rats: 13
  No. of tumor-bearing rats (%): 92.9%
  No. of tumors/rat: 9.39 ± 9.79^b
Hras128 rats [9]; mammary carcinogenesis
  Sensitivity of the Hras128 rat to DMBA: very sensitive
[1]; [21]
  Transgene codon 12 mutations, %: 30%
  Transgene codon 61 mutations, %: 35%
  Transgene mutations total, %: 60%
  Transgene mutations total, number of tumors: 12
[1]; [22]
  Transgene codon 12 mutations, number of tumors: 6/20 and 6
  Transgene codon 61 mutations, number of tumors: 7/20 and 7
[10]
  Tumor size (diameter): 13.4 ± 8.20 mm
[10]; 12 rats
  No. of tumor-bearing rats: 4
  No. of tumor-bearing rats (%): 33.3%
  No. of tumors/rat: 0.83 ± 1.75
[3]; [21]
  Endogenous (rat) exon 1 mutations, number of tumors: 0
  Endogenous (rat) exon 2 mutations, number of tumors: 0
[3]; [23]
  Endogenous (rat) exon 1 mutations, number of tumors: 0
  Endogenous (rat) exon 2 mutations, number of tumors: 0

## CCN(N=O)C(N)=O [ENU, ethylnitrosourea]
Wild rats; Wild 128 Female offspring
  No. of tumor bearing rat/total No. of rat: 0/7
  Tumor incidence, CNS: 0
  Tumor incidence, kidney: 0
  Tumor incidence, mammary gland: 0
  Tumor incidence, papilloma: 0
  Tumor incidence, spleen: 0
Wild rats; Wild 128 Male offspring
  No. of tumor bearing rat/total No. of rat: 2/6
  Tumor incidence, CNS: 2/6
  Tumor incidence, kidney: 0
  Tumor incidence, mammary gland: 0
  Tumor incidence, papilloma: 0
  Tumor incidence, spleen: 0
Hras128 rats [11]; Tg 128 Female offspring
  No. of tumor bearing rat/total No. of rat: 6/9
  Tumor incidence, CNS: 3/9
  Tumor incidence, kidney: 2/9
  Tumor incidence, mammary gland: 5/9
  Tumor incidence, papilloma: 0
  Tumor incidence, spleen: 2/9
Hras128 rats [11]; Tg 128 Male offspring
  No. of tumor bearing rat/total No. of rat: 8/15
  Tumor incidence, CNS: 6/15
  Tumor incidence, kidney: 6/15
  Tumor incidence, mammary gland: 4/15
  Tumor incidence, papilloma: 3/15
  Tumor incidence, spleen: 0/15
Hras128 rats [11]; transgenic rat, within a short period
  Occurrence of tumors in the central nervous system, kidney, skin, etc. after trans-placental administration: significantly increases

## CCCCN(CCCCO)N=O [BBN, N-butyl-N-(4-hydroxybutyl)nitrosoamine]
Wild type rats; bladder
  Incidence of carcinomas (fraction): 4/13
Wild type rats; bladder papillomas and carcinomas combined, 0.05% BBN in drinking water 10 weeks, 15 rats
  No. of tumor-bearing rats: 15
Wild type rats; [24]
  No. of tumor-bearing rats (%): 100%
  No. of tumors/rat: 7.1 ± 5.2
Wild type rats; bladder, percent sign not given
  Incidence of carcinomas (figure in parentheses): 30.8
[1]; [25]
  Transgene codon 12 mutations, %: 7.4%
  Transgene codon 61 mutations, number of tumors: 0
  Transgene mutations total, %: 7.4%
  Transgene mutations total, number of tumors: 2
[1]; BBN-induced bladder tumors, Hras128, 27 tumors examined, GGC to GAC
  Transgene codon 12 mutations, number of tumors: 2/27 and 2
[3]; [25]
  Endogenous (rat) exon 1 mutations, number of tumors: 0
  Endogenous (rat) exon 2 mutations, number of tumors: 0
[3]; [26]
  Endogenous (rat) exon 1 mutations, %: 5.9%
  Endogenous (rat) exon 2 mutations, number of tumors: 0
[3]; BBN-induced bladder tumors, Wild, 17 tumors examined, GGA to GAA
  Endogenous (rat) exon 1 mutations, number of tumors: 1/17 and 1
Hras128 rats [12]; Hras128 female, bladder
  Incidence of carcinomas (fraction): 11/14
Hras128 rats [12]; Hras128 female, bladder papillomas and carcinomas combined, 0.05% BBN in drinking water 10 weeks, 20 rats
  No. of tumor-bearing rats: 19
Hras128 rats [12]; [27]
  No. of tumor-bearing rats (%): 95%
  No. of tumors/rat: 13.2 ± 6.8^b
Hras128 rats [12]; Hras128 female, bladder, percent sign not given
  Incidence of carcinomas (figure in parentheses): 35.3
Hras128 rats [12]; rat, in vivo
  Sensitivity of the Hras128 rat to BBN carcinogenesis in the bladder: slightly elevated sensitivity
